Data from US11034671B2, “Apoptosis signal-regulating kinase inhibitors and uses thereof” (SICHUAN HAISCO PHARMACEUTICAL CO., LTD., priority 2017, dated 2021).

Legend:
ASK1 = ASK1 (Homo sapiens (Human), UniProt Q99683); experiment: ASK1 KINOMEscan assay (biochemical Kd), competition binding; conditions: DNA-tagged ASK1 kinase, 11-point 3-fold dilution
Method: The binding of compounds to ASK1 were determined using DiscoverX's proprietary technology. […] The assay is performed by combining three components: DNA-tagged ASK1 kinase; immobilized ligand; and a test compound. The ability of the test compound to compete with the immobilized ligand is measured via quantitative PCR of the DNA tag. […] The liganded beads were blocked with excess biotin and washed with blocking buffer (SeaBlock (Pierce), 1% BSA, 0.05% Tween 20, 1 mM DTT) to remove unbound ligand and to reduce nonspecific binding. […] Kds were determined using an 11-point 3-fold compound dilution series with three DMSO control points. […] The compounds were then diluted directly into the assays such that the final concentration of DMSO was 0.9%. All reactions were performed in polypropylene 384-well plate. […] The kinase concentration in the eluates was measured by qPCR. Most Kds were determined using a compound top concentration=30,000 nM. […] Binding constants (Kds) were calculated with a standard dose-response curve using the Hill equation: Response=Background+{(Signal−Background)/[1+(Kd^Hill Slope/Dose^Hill Slope)]}, the Hill Slope was set to −1, and curves were fitted using a non-linear least square fit with the Levenberg-Marquardt algorithm.

[1] = test system: phospho-p38 (downstream target of ASK1 activation) in HK-2 cells; experiment: HK-2 phospho-p38 HTRF assay (cellular IC50); assay type: cell-based; conditions: Homo sapiens, compound 2 h then 1 mM H2O2 30 min, phospho-T180/Y182 p38 HTRF, read-out: p38 MAPK IC50
Method: Monolayers of HK-2 cells were grown on 384-well plates at 8000 cells/well and incubated at 37° C. with 5% CO2/95% air in keratinocyte serum-free medium (Thermofisher, Carlsbad, Calif.) supplemented with recombinant human EGF (5 ng/mL) and bovine pituitary extract (50 μg/mL). 24 hours after seeding, cells were treated with test compounds for various concentrations for 2 hours and followed by 30 min treatment of H2O2 with final concentration of 1 mM. At the end of cell treatment, the cell medium was removed, and the cells were washed once with ice-cold PBS and subjected to measure the level of phosphor-p38 (downstream target of ASK1 activation) using Cisbio's P38 phospho-T180/Y182 HTRF kit from Cisbio (Cat. 64P38PEG). […] The compounds were then diluted directly into the assays such that the final concentration of DMSO was 0.4%. […] IC50 were calculated with a log (dose)-response curve using four parameter variable nonlinear fitting, with log(dose) in X-axis and (Em665/Em620×10000) ratio as Y-axis.

Sequence of ASK1 (Q99683 whole entry): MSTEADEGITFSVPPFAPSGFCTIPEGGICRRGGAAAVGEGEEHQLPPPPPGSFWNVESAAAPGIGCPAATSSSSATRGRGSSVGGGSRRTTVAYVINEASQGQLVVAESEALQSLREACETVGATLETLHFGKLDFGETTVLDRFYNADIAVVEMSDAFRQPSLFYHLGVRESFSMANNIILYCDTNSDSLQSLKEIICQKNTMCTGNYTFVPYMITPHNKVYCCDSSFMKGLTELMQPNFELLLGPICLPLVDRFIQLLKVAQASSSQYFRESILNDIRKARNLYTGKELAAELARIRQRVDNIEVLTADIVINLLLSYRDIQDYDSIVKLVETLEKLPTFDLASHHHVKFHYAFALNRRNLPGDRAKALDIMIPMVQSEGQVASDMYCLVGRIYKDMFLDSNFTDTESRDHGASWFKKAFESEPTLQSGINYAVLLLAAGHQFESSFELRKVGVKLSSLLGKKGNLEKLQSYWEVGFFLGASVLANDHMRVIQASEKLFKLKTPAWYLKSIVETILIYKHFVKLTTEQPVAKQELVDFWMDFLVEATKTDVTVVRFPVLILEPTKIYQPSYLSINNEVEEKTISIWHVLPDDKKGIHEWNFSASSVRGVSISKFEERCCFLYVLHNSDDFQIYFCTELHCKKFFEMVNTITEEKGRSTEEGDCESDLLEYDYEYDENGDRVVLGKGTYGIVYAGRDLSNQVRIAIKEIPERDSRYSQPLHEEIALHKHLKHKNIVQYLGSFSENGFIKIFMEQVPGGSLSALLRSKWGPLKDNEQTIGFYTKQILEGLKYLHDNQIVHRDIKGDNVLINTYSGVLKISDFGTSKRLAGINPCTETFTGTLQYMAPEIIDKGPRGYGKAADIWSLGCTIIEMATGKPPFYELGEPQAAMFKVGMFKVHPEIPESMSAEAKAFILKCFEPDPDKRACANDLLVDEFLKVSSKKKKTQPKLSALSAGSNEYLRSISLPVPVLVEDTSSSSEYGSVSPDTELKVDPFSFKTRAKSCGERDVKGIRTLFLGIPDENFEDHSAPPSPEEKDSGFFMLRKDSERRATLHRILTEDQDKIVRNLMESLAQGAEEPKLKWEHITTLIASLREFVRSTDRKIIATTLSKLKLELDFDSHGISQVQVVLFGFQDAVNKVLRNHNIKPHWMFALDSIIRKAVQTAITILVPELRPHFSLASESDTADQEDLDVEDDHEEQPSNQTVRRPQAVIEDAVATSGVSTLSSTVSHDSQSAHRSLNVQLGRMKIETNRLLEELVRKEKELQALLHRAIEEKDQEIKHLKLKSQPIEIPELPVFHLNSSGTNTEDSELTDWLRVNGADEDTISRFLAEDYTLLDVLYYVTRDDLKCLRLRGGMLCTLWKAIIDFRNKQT

Row | SMILES | Kd (ASK1) [nM] | IC50 [1] [nM]
1 | O=C1Nc2cccc(n2)-c2nncn2CCCOc2ccc(-n3cnc(C4CC4)c3)cc21 [Example 66] | < 10 | 100 to 1000
2 | O=C1Nc2cccc(n2)-c2nncn2CCCCCOc2ccc(-c3ccc(C4CC4)nc3)cc21 [Example 19] | 10 to 100 | 100 to 1000
3 | Cc1ccc(-c2ccc3c(c2)C(=O)Nc2cccc(n2)-c2nncn2C2CC(CO3)C2)cn1 [Example 69] | – | < 100
4 | CC1(C)Cc2cc3c(cc2O1)C(=O)Nc1cccc(n1)-c1nncn1CCCCO3 [Example 30] | < 10 | < 100
5 | O=C1Nc2cccc(n2)-c2nncn2CCCCOc2ccc(-c3ccc(C4CC4)nc3)cc21 [Example 23] | < 10 | 100 to 1000
6 | Cc1ccc(-c2ccc3c(c2)C(=O)Nc2cccc(n2)-c2nncn2C2CCC(CC2)O3)cn1 [Example 71] | – | < 100
7 | Cc1ccc(-c2ccc3c(c2)C(=O)Nc2cccc(n2)-c2nncn2C(C)CCCO3)cn1 (stereo not shown) [Example 56] | < 10 | < 100
8 | O=C1Nc2cccc(n2)-c2nncn2CCCCOc2ccc(-c3ccc(C(F)F)nc3)cc21 [Example 52] | < 10 | < 100
9 | O=C1Nc2cccc(n2)-c2nncn2CCCCOc2ccc(C3CC3)cc21 [Example 46] | < 10 | 100 to 1000
10 | Cc1cc2c(cc1-n1cnc(C3CC3)c1)C(=O)Nc1cccc(n1)-c1nncn1CCCCO2 [Example 61] | < 10 | < 100
11 | O=C1Nc2cccc(n2)-c2nncn2CCCCOc2ccc(-c3ccc(Cl)nc3)cc21 [Example 54] | < 10 | < 100
12 | Cc1ccc(-c2ccc3c(c2)C(=O)Nc2cccc(n2)-c2nncn2C(C)CCO3)cn1 (stereo not shown) [Example 67] | < 10 | < 100
13 | CC1CCCOc2ccc(-c3ccc(C4CC4)nc3)cc2C(=O)Nc2cccc(n2)-c2nncn21 (stereo not shown) [Example 50] | < 10 | < 100
14 | N#Cc1ccc(-c2ccc3c(c2)C(=O)Nc2cccc(n2)-c2nncn2CCCCO3)cn1 [Example 63] | < 10 | 100 to 1000
15 | Cc1ccc(-c2ccc3c(c2)C(=O)Nc2cccc(n2)-c2nncn2[C@H]2C[C@@H](CO3)C2)cn1 [Example 69] | < 10 | –
16 | O=C1Nc2cccc(n2)-c2nncn2C/C=C\COc2ccc(Br)cc21 [Example 16] | 10 to 100 | –
17 | O=C1Nc2cccc(n2)-c2nncn2CCCCOc2ccc(-c3ccc(F)nc3)cc21 [Example 39] | < 10 | < 100
18 | COc1cc2c(cc1Br)OCCCCn1cnnc1-c1cccc(n1)NC2=O [Example 59] | 100 to 1000 | –
19 | O=C1Nc2cccc(n2)-c2nncn2CCCCOc2ccc(-c3ccc(C(F)(F)F)nc3)cc21 [Example 40] | < 10 | < 100
20 | O=C1Nc2cccc(n2)-c2nncn2CCCCOc2ccc(-c3ccsc3)cc21 [Example 42] | < 10 | 100 to 1000
21 | O=C1Nc2cccc(n2)-c2nncn2CC=CCCCOc2ccc(Br)cc21 [Example 12] | 10 to 100 | –
22 | Cc1cc2c(cc1-c1ccc(C3CC3)nc1)C(=O)Nc1cccc(n1)-c1nncn1CCCCO2 [Example 65] | < 10 | –

Row | SMILES | Kd (ASK1) [nM] | IC50 [1] [nM]
23 | O=C1Nc2cccc(n2)-c2nncn2CCCCOc2cc(F)c(F)cc21 [Example 25] | 100 to 1000 | –
24 | CCc1ccc(-c2ccc3c(c2)C(=O)Nc2cccc(n2)-c2nncn2CCCCO3)cn1 [Example 47] | < 10 | < 100
25 | O=C1Nc2cccc(n2)-c2nncn2CCCCOc2ccc(Cl)cc21 [Example 41] | 10 to 100 | –
26 | O=C1Nc2cccc(n2)-c2nncn2C/C=C/CCOc2ccc(OCc3ccccc3)cc21 [Example 17] | 10 to 100 | –
27 | Cc1ccc(-c2ccc3c(c2)C(=O)Nc2cccc(n2)-c2nncn2CCCCO3)cn1 [Example 24] | < 10 | < 100
28 | O=C1Nc2cccc(n2)-c2nncn2CC=CCCCOc2ccc(-c3ccc(C4CC4)nc3)cc21 [Example 13] | > 1000 | –
29 | COc1ccc2c(c1)C(=O)Nc1cccc(n1)-c1nncn1CCCCCO2 [Example 2] | < 10 | –
30 | Cc1ccc(-c2ccc3c(c2)C(=O)Nc2cccc(n2)-c2nncn2CCCOC3)cn1 [Example 70] | < 10 | < 100
31 | COc1ccc2c(c1)C(=O)Nc1cccc(n1)-c1nncn1CC=CCO2 [Example 6] | 10 to 100 | –
32 | O=C1Nc2cccc(n2)-c2nncn2C/C=C/COc2ccc(OCc3ccccc3)cc21 [Example 18] | < 10 | –
33 | COc1ccc2c(c1)C(=O)Nc1cccc(n1)-c1nncn1CCC/C=C/CO2 [Example 3] | 10 to 100 | –
34 | O=C1Nc2cccc(n2)-c2nncn2CCCCOc2ccc(-c3ccccc3)cc21 [Example 38] | < 10 | < 100
35 | O=C1Nc2cccc(n2)-c2nncn2CCCCOc2cc(F)c(-c3ccc(C4CC4)nc3)cc21 [Example 68] | < 10 | –
36 | COc1ccc2c(c1)C(=O)Nc1cccc(n1)-c1nncn1CC/C=C/CO2 [Example 1] | < 10 | –
37 | Cc1ccc(-c2cc3c(cc2C)OCCCCn2cnnc2-c2cccc(n2)NC3=O)cn1 [Example 51] | < 10 | –
38 | O=C1Nc2cccc(n2)-c2nncn2CCCOc2ccc(-c3ccc(C4CC4)nc3)cc21 [Example 37] | < 10 | < 100
39 | O=C1Nc2cccc(n2)-c2nncn2CCCCOc2ccc(N3CCOCC3)cc21 [Example 43] | – | < 100
40 | Cn1cc(-c2ccc3c(c2)C(=O)Nc2cccc(n2)-c2nncn2CCCCO3)cn1 [Example 48] | – | < 100
41 | COc1ccc2c(c1)C(=O)Nc1cccc(n1)-c1nncn1CCCCCCO2 [Example 11] | < 10 | –
42 | O=C1Nc2cccc(n2)-c2nncn2CCCCOc2ccc(-n3cnc(C4CC4)c3)cc21 [Example 22] | < 10 | < 100
43 | O=C1Nc2cccc(n2)-c2nncn2CCCCOc2cc(F)c(Br)cc21 [Example 28] | 100 to 1000 | –
44 | N#Cc1cc2c(cc1F)OCCCCn1cnnc1-c1cccc(n1)NC2=O [Example 44] | 10 to 100 | –

Next, values leading:

Row | Kd (ASK1) [nM] | IC50 [1] [nM] | SMILES
45 | < 10 | – | Cc1ccc(-c2ccc3c(c2)C(=O)Nc2cccc(n2)-c2nncn2[C@H](C)CCCO3)cn1 [Example 89]
46 | 10 to 100 | – | O=C1Nc2cccc(n2)-c2nncn2CCCOc2ccc(-c3ccc(C(F)F)nc3)cc21 [Example 79]
47 | < 10 | – | CCc1ccc(-c2ccc3c(c2)C(=O)Nc2cccc(n2)-c2nncn2CCCS3)cn1 [compound 92]
48 | 10 to 100 | – | O=C1Nc2cccc(n2)-c2nncn2CCCOCc2ccc(-c3ccc(C(F)(F)F)nc3)cc21 [Example 101]
49 | < 10 | – | Cc1ccc(-c2ccc3c(c2)C(=O)Nc2cccc(n2)-c2nncn2[C@@H](C)CCCO3)cn1 [Example 88]
50 | 100 to 1000 | – | Cc1c(F)c(F)cc2c1C(=O)Nc1cccc(n1)-c1nncn1CCCCO2 [compound 26]
51 | > 1000 | – | Cc1ccc(-c2ccc3c(c2)C(=O)Nc2cccc(n2)-c2nncn2CCO3)cn1 [Example 72]
52 | < 10 | – | O=C1Nc2cccc(n2)-c2nncn2CCCOCc2ccc(-c3ccc(CF)nc3)cc21 [Example 100]
53 | < 10 | – | O=C1Nc2cccc(n2)-c2nncn2CCCOCc2ccc(-n3cnc(C4CC4)c3)cc21 [Example 103]
54 | < 10 | – | CC(F)(F)c1ccc(-c2ccc3c(c2)C(=O)Nc2cccc(n2)-c2nncn2CCCCO3)cn1 [Example 78]
55 | < 10 | – | Cc1ccc(-c2ccc3c(c2)C(=O)Nc2cccc(n2)-c2nncn2C2C[C@H]2CCO3)cn1 (stereo in doubt) [Example 97]
56 | > 1000 | – | Cc1ccc(-c2ccc3c(c2)C(=O)Nc2cccc(n2)-c2nncn2CCCS3)cn1 [Example 91]
57 | 10 to 100 | – | N#Cc1ccc2c(c1)OCCCCn1cnnc1-c1cccc(n1)NC2=O [Example 96]
58 | 100 to 1000 | – | O=C1Nc2cccc(n2)-c2nncn2C2CC(C2)Oc2ccc(-c3ccc(C(F)F)nc3)cc21 [Example 93]
59 | < 10 | – | O=C1Nc2cccc(n2)-c2nncn2CCCCOc2ccc(-c3ccc(CF)nc3)cc21 [Example 87]
60 | 10 to 100 | – | O=C1Nc2cccc(n2)-c2nncn2CCCOCc2ccc(-c3cnc(F)c(F)c3)cc21 [Example 107]
61 | < 10 | – | O=C1Nc2cccc(n2)-c2nncn2[C@H]2CCC(C2)Oc2ccc(-c3ccc(C(F)F)nc3)cc21 [Example 86]
62 | < 10 | – | Cc1ccc(-c2ccc3c(c2)C(=O)Nc2cccc(n2)-c2nncn2CC[C@@H](C)CO3)cn1 [Example 104]
63 | < 10 | – | Cc1ccc(-c2ccc3c(c2)C(=O)Nc2cccc(n2)-c2nncn2[C@H]2CC[C@H](CC2)O3)cn1 [Example 71]
64 | < 10 | – | CCc1ccc(-c2ccc3c(c2)C(=O)Nc2cccc(n2)-c2nncn2CCCOC3)cn1 [Example 102]
